Our source for the LC retention time values is the RepoRT retention time repository.

Structures are written as SMILES.

This series in a line: HILIC, Waters ACQUITY UPLC BEH Amide, 100 × 2.1 mm, 1.7 µm; A: water + 0.125% formic acid + 10 mM ammonium formate; B: 5% water + 95% acetonitrile + 0.125% formic acid + 10 mM ammonium formate; gradient (min/%B) 0/100 2/100 7.7/70 9.5/40 10.25/30 12.75/100 17/100. The conditions noted are these: stereoisomer not certain.
With `O=C(O)CCCCCO` [6-Hydroxycaproic acid], the LC retention time came to 1.34 min.

As to `O=c1cc(-c2ccccc2)oc2ccc(O)cc12` [6-Hydroxyflavone], the LC retention time came out at 1.26 min.

As for `CC(C)=CCCC(C)O` (stereo unspecified) [6-Methyl-5-hepten-2-ol], the LC retention time stood at 7.3 min.

For the compound `CNc1ncnc2c1ncn2C1OC(CO)C(O)C1O` (stereo unspecified) [6-Methyladenosine], the LC retention time stood at 3.56 min.

With `CSc1ncnc2nc[nH]c12` [6-Methylmercaptopurine], the LC retention time came to 1.49 min.

Turning to `CC(O)C(O)C1=Nc2c(nc(N)[nH]c2=O)NC1` (stereo unspecified) [7,8-Dihydrobiopterin], the LC retention time was 7.18 min.

On to `Cn1c[n+](C2OC(CO)C(O)C2O)c2nc(N)nc([O-])c21` (stereo unspecified) [7-Methylguanosine], for which the LC retention time stood at 7.34 min.

With `O=[N+]([O-])c1cccc2cn[nH]c12` [7-Nitroindazole], the LC retention time came to 1.03 min.

For `Nc1ncnc2c1[nH]c(=O)n2C1CC(O)C(CO)O1` (stereo unspecified) [8-Oxo-2-deoxyadenosine], the LC retention time came out at 5.11 min.

In the case of `CC12CCC3c4ccc(O)cc4CCC3C1CC(OC1OC(C(=O)O)C(O)C(O)C1O)C2O` (stereo unspecified) [16-Glucuronide-estriol], the LC retention time turned out to be 6.49 min.

With `O=C(O)CC1C(=O)Nc2ccccc21` (stereo unspecified) [(2-oxo-2,3-dihydro-1H-indol-3-yl)acetic acid], the LC retention time was 2.02 min.

In the case of `CCCC(=O)OC(CC(=O)[O-])C[N+](C)(C)C` [(R)-Butyrylcarnitine], the LC retention time worked out at 5.77 min.

As for `CN1C(=O)CCC1c1ccc[n+]([O-])c1` [(S)-Cotinine N-oxide], the LC retention time came to 3.87 min.

For the compound `CN(C)C(N)=NCCCC(N)C(=O)O` (stereo unspecified) [ADMA], the LC retention time was 8.55 min.

Take `CCCCCC=CCC=CCC=CCC=CCCCC(=O)Nc1ccc(O)cc1` [AM 404]: the LC retention time came out at 0.97 min.

As to `CC(C)C1=CC2=CCC3C(C)(C(=O)O)CCCC3(C)C2CC1` (stereo unspecified) [Abietic acid], the LC retention time is 1.11 min.

With `CC(C=CC1(O)C(C)=CC(=O)CC1(C)C)=CC(=O)O` (stereo unspecified) [Abscisic acid], the LC retention time was 1.33 min.

Consider `CC1OC(OC2C(CO)OC(OC3C(CO)OC(O)C(O)C3O)C(O)C2O)C(O)C(O)C1NC1C=C(CO)C(O)C(O)C1O` (stereo unspecified) [Acarbose], for which the LC retention time was determined as 9.88 min.

Consider `CC(=O)Nc1ccc(OC2OC(C(=O)O)C(O)C(O)C2O)cc1` (stereo unspecified) [Acetaminophen glucuronide], for which the LC retention time was found to be 7.73 min.

`CC(=O)Nc1ccc(O)cc1` [Acetaminophen]: the LC retention time turned out to be 1.37 min.

For the compound `CC(=O)Nc1ccccc1` [Acetanilide], the LC retention time was 1.11 min.

Regarding `CC(=O)NO` [Acetohydroxamic acid], the LC retention time was determined as 2.94 min.

As to `CC(=O)OC(CC(=O)[O-])C[N+](C)(C)C` (stereo unspecified) [Acetylcarnitine], the LC retention time is 7.19 min.

Regarding `CC(=O)N1C(=O)C(=O)c2ccccc21` [Acetylisatin], the LC retention time was found to be 2.4 min.

Take `Cc1c2oc3c(C)ccc(C(=O)NC4C(=O)NC(C(C)C)C(=O)N5CCCC5C(=O)N(C)CC(=O)N(C)C(C(C)C)C(=O)OC4C)c3nc-2c(C(=O)NC2C(=O)NC(C(C)C)C(=O)N3CCCC3C(=O)N(C)CC(=O)N(C)C(C(C)C)C(=O)OC2C)c(N)c1=O` (stereo unspecified) [Actinomycin D]: the LC retention time is 1.03 min.

In the case of `CC(=O)Nc1ccc(CC(=O)O)cc1` [Actrarit], the LC retention time amounted to 1.58 min.

`Nc1ncnc2nc[nH]c12` [Adenine]: the LC retention time stood at 4.71 min.

Consider `Nc1ncnc2c1ncn2C1OC2COP(=O)(O)OC2C1O` (stereo unspecified) [Adenosine 3',5'-cyclic monophosphate], for which the LC retention time was 7.62 min.

On to `Nc1ncnc2c1ncn2C1OC(COP(=O)(O)O)C(O)C1O` (stereo unspecified) [Adenosine 5'-monophosphate], for which the LC retention time was found to be 8.88 min.

Regarding `Nc1ncnc2c1ncn2C1OC(CO)C(OP(=O)(O)O)C1O` (stereo unspecified) [Adenosine-3-monophosphate], the LC retention time stood at 8.88 min.

Consider `Nc1ncnc2c1ncn2C1OC(CO)C(O)C1O` (stereo unspecified) [Adenosine], for which the LC retention time was 4.77 min.

Turning to `CC12CC(=O)C3C(CCC4=CC(=O)CCC43C)C1CCC2=O` (stereo unspecified) [Adrenosterone], the LC retention time turned out to be 1.1 min.

Consider `NCCCCN=C(N)N` [Agmatine], for which the LC retention time is 8.92 min.

Regarding `CC(N)C(=O)NC(C)C(=O)O` (stereo unspecified) [Ala-Ala], the LC retention time is 8.41 min.

Turning to `CC(N)C(=O)NC(CCC(N)=O)C(=O)O` (stereo unspecified) [Ala-Gln], the LC retention time stood at 9.11 min.

For the compound `CCC(C)C(NC(=O)C(C)N)C(=O)O` (stereo unspecified) [Ala-Ile], the LC retention time stood at 7.83 min.

Regarding `CC(C)CC(NC(=O)C(C)N)C(=O)O` (stereo unspecified) [Ala-Leu], the LC retention time was 7.6 min.

Consider `CC(N)C(=O)NC(C(=O)O)C(C)C` (stereo unspecified) [Ala-Val], for which the LC retention time came to 7.66 min.

Turning to `CC(N)C(=O)O` (stereo unspecified) [Alanine], the LC retention time came out at 8.05 min.

On to `CCCSc1ccc2nc(NC(=O)OC)[nH]c2c1` [Albendazole], for which the LC retention time was 1.22 min.

Take `CC(C)(C)NCC(O)c1ccc(O)c(CO)c1` (stereo unspecified) [Albuterol]: the LC retention time is 5.55 min.

Consider `COc1cc2nc(N(C)CCCNC(=O)C3CCCO3)nc(N)c2cc1OC` (stereo unspecified) [Alfuzosin], for which the LC retention time was found to be 4.29 min.

Take `NC(=O)NC(NC(N)=O)C(=O)O` [Allantoic acid]: the LC retention time was found to be 8.56 min.

On to `Cc1[nH]cnc1CN1CCc2c(c3ccccc3n2C)C1=O` [Alosetron], for which the LC retention time came out at 4.19 min.

Consider `Cc1nnc2n1-c1ccc(Cl)cc1C(c1ccccc1)=NC2` [Alprazolam], for which the LC retention time came out at 1.34 min.

As to `O=C(c1ccc(F)cc1)C1CCN(CCn2c(=S)[nH]c3ccccc3c2=O)CC1` [Altanserin], the LC retention time is 2.64 min.

For the compound `NC12CC3CC(CC(C3)C1)C2` [Amantadine], the LC retention time is 4.88 min.

Take `NC(N)=NC(=O)c1nc(Cl)c(N)nc1N` [Amiloride]: the LC retention time amounted to 5.52 min.

As for `CCCCc1oc2ccccc2c1C(=O)c1cc(I)c(OCCN(CC)CC)c(I)c1` [Amiodarone], the LC retention time was found to be 1.87 min.

As to `CCN1CCCC1CNC(=O)c1cc(S(=O)(=O)CC)c(N)cc1OC` (stereo unspecified) [Amisulpride], the LC retention time turned out to be 2.76 min.

For the compound `CC(C)c1ccc2oc3nc(N)c(C(=O)O)cc3c(=O)c2c1` [Amlexanox], the LC retention time was found to be 1.81 min.

Take `CCOC(=O)C1=C(COCCN)NC(C)=C(C(=O)OC)C1c1ccccc1Cl` (stereo unspecified) [Amlodipine]: the LC retention time stood at 4.24 min.

Consider `CC(N)Cc1ccccc1` (stereo unspecified) [Amphetamine], for which the LC retention time turned out to be 4.6 min.

Regarding `CCOC(=O)OC(C)OC1=C(C(=O)Nc2ccccn2)N(C)S(=O)(=O)c2ccccc21` (stereo unspecified) [Ampiroxicam], the LC retention time was found to be 0.95 min.

On to `O=C1CN2Cc3c(ccc(Cl)c3Cl)N=C2N1` [Anagrelide], for which the LC retention time was found to be 1.82 min.

As for `CC(C)(C#N)c1cc(Cn2cncn2)cc(C(C)(C)C#N)c1` [Anastrozole], the LC retention time is 0.98 min.

In the case of `CC12CCC3C(CCC4CC(O)CCC43C)C1CCC2O` (stereo unspecified) [Androstane-3,17-diol], the LC retention time amounted to 0.96 min.

Take `CC12CCC3C(CCC4=CC(=O)CCC43C)C1CCC2=O` (stereo unspecified) [Androstenedione]: the LC retention time is 1.09 min.

Consider `CC12CCC3C(CCC4CC(O)CCC43C)C1CCC2=O` (stereo unspecified) [Androsterone], for which the LC retention time was found to be 4.62 min.

Turning to `Cn1cncc1CC(NC(=O)CCN)C(=O)O` (stereo unspecified) [Anserine], the LC retention time came to 9.49 min.

Regarding `CCCCCC=CCC=CCC=CCC=CCCCC(=O)NCCc1ccc(O)c(O)c1` [Arachidonyl dopamine], the LC retention time worked out at 1.14 min.

As to `CC(NC(=O)C(N)CCCN=C(N)N)C(=O)O` (stereo unspecified) [Arg-Ala], the LC retention time stood at 9.66 min.

`NC(N)=NCCCC(N)C(=O)NCC(=O)O` (stereo unspecified) [Arg-Gly]: the LC retention time worked out at 9.85 min.

As for `NC(N)=NCCCC(N)C(=O)N1CCCC1C(=O)O` (stereo unspecified) [Arg-Pro], the LC retention time was determined as 9.51 min.

As to `NC(N)=NCCCC(N)C(=O)NC(CO)C(=O)O` (stereo unspecified) [Arg-Ser], the LC retention time is 9.9 min.

As for `CC(C)C(NC(=O)C(N)CCCN=C(N)N)C(=O)O` (stereo unspecified) [Arg-Val], the LC retention time was determined as 9.3 min.

For `CC1CNc2c(cccc2S(=O)(=O)NC(CCCN=C(N)N)C(=O)N2CCC(C)CC2C(=O)O)C1` (stereo unspecified) [Argatroban], the LC retention time turned out to be 5.45 min.

Turning to `NC(N)=NCCCC(N)C(=O)O` (stereo unspecified) [Arginine], the LC retention time was 9.53 min.

In the case of `O=C1CCc2ccc(OCCCCN3CCN(c4cccc(Cl)c4Cl)CC3)cc2N1` [Aripiprazole], the LC retention time was 3.14 min.

In the case of `O=C1OC(C(O)CO)C(O)=C1O` (stereo unspecified) [Ascorbic acid], the LC retention time was determined as 1.44 min.

With `NC(CC(=O)O)C(=O)NC(CCC(=O)O)C(=O)O` (stereo unspecified) [Asp-Glu], the LC retention time amounted to 9.47 min.

Take `NC(CC(=O)O)C(=O)NC(Cc1ccccc1)C(=O)O` (stereo unspecified) [Asp-Phe]: the LC retention time amounted to 8.14 min.

Regarding `NC(=O)CC(N)C(=O)O` (stereo unspecified) [Asparagine], the LC retention time amounted to 8.81 min.

On to `NC(CC(=O)O)C(=O)O` (stereo unspecified) [Aspartic acid], for which the LC retention time worked out at 9.33 min.

In the case of `CNCCC(Oc1ccccc1C)c1ccccc1` (stereo unspecified) [Atomoxetine], the LC retention time was 2.42 min.

Take `CN1C2CCC1CC(OC(=O)C(CO)c1ccccc1)C2` (stereo unspecified) [Atropine]: the LC retention time was found to be 4.32 min.

As to `CN1C(=O)COc2c(C(=O)NC3CN4CCC3CC4)cc(Cl)cc21` (stereo unspecified) [Azasetron], the LC retention time was found to be 4.66 min.

As to `CN1CCCC(n2nc(Cc3ccc(Cl)cc3)c3ccccc3c2=O)CC1` (stereo unspecified) [Azelastine], the LC retention time stood at 2.95 min.

Turning to `O=C(O)CCNC(=O)c1ccc(N=Nc2ccc(O)c(C(=O)O)c2)cc1` [Balsalazide], the LC retention time is 4.85 min.

Turning to `CC1CC2C3CCC4=CC(=O)C=CC4(C)C3(Cl)C(O)CC2(C)C1(O)C(=O)CO` (stereo unspecified) [Beclomethasone], the LC retention time is 1.26 min.

Take `CCN(CC)CCOC(=O)C(O)(c1ccccc1)c1ccccc1` [Benactyzine]: the LC retention time came to 2.16 min.
